The values below come from patent US20240246920A1, “TRIAZOLE DERIVATIVES WITH ANTIFUNGAL ACTIVITY” (King's College London, priority 2020, published 2024).

Converted amounts (≈) assume the structure as drawn.

One test concerns C. auris TDG1912. In words: Candida panel MIC, serial dilution in 96-well plates. In kind it is cell-based. The conditions noted are these: Candidozyma auris, TDG1912; Table 4; 24 hours, ≥50% inhibition; read-out: MIC C. auris TDG1912. Here is the method: (§1) The minimum inhibitory concentration of test compounds were determined in a panel of Candida species (see Table 4 below), using the a serial dilution method in 96-well plates using the following protocol.
(§2) Starter cultures of fungal strains to be tested were grown in 3 mL of RPMI 2% glucose media incubated at 37° C. with shaking at 200 rpm overnight. The culture media used was 900 mL H2O; 10.4 g RPMI 1640 (with L-glutamine and a pH indicator but without bicarbonate); 34.5 g MOPS and 18 g glucose. The pH of the media was adjusted to 7.0 with 1 M sodium hydroxide.
(§3) Solutions of the compound to be tested were prepared by dissolving the compound in DMSO and subsequently into media to the desired concentrations. 200 μL of compound solution was then added to the wells of the 96-well plate using a serial dilution method row-by row of the plate to give a compound concentration gradient across the plate of from 128 μg/mL to 0.25 μg/mL. The last two rows of each plate were control rows containing the culture media alone and the media plus fungi.
(§4) The fungi starter cultures were diluted 1:10 in water in cuvettes. This was then further diluted to an optical density (OD600) of 0.01 in media. 100 μL of the fungi was added to each well giving a starting concentration of fungus of 0.5-5×10^5/mL. One species of fungus was used on each plate. The plates were then held at 37° C. for 24 hours.
(§5) A plate reader was used to measure growth in each well at OD530 nm and the MIC was determined for each test compound. The MIC is defined as the lowest concentration giving rise to inhibition of ≥50% of that of the drug-free control well containing the fungus and media.

The subject of a further test is C. tropicalis NCPF8760. The test is described as above. In kind it is cell-based. The following applies: NCPF8760, Table 4, common panel, 24 hours, ≥50% inhibition, read-out: MIC C. tropicalis NCPF8760. The protocol:
as §1, §2, §3, §4, §5

The next test relates to Candida auris TDG2512. The test is described as above. The conditions noted are these: Candidozyma auris, TDG2512; Table 4, extended panel; 24 hours, ≥50% inhibition; read-out: MIC Candida auris TDG2512. The format is cell-based. Here is the method: as §1, §2, §3, §4, §5
The next test relates to Candida auris TDG1102. The test is described as above. In kind it is cell-based. The following applies: Candidozyma auris, TDG1102; Table 4, extended panel; 24 hours, ≥50% inhibition; read-out: MIC Candida auris TDG1102. Here is the method:
as §1, §2, §3, §4, §5

A further test has as its system C. albicans NCPF3281. The description is as above. The format is cell-based, Candida albicans. The conditions noted are these: Candida albicans, NCPF3281; Table 4, common panel; 24 hours, ≥50% inhibition; read-out: MIC C. albicans NCPF3281. The protocol: as §1, §2, §3, §4, §5
For a further test, the system named is C. auris 8984. The test is described as above. The format is cell-based, Candida auris. The conditions noted are these: Candidozyma auris, 8984; Table 4, extended panel; 24 hours, ≥50% inhibition; read-out: MIC C. auris 8984. The protocol: as §1, §2
(§6) Solutions of the compound to be tested were prepared by dissolving the compound in DMSO and subsequently into media to the desired concentrations. […] The last two rows of each plate were control rows containing the culture media alone and the media plus fungi.
as §4, §5
(§7) The Candida auris strains shown in Table 7 were either taken from the National Collection of Pathogenic Fungi (NCPF) or collected as part of ongoing surveillance studies. The strains were characterised as follows.

The subject of another test is C. auris 8977. The description is as above. In kind it is cell-based, Candida auris. The following applies: Candidozyma auris, 8977; Table 4, extended panel; 24 hours, ≥50% inhibition; read-out: MIC C. auris 8977. Here is the method:
as §1, §2, §6, §4, §5, §7

The subject of another test is C. auris 8971. The description is as above. In kind it is cell-based, Candida auris. The conditions noted are these: Candidozyma auris, 8971; Table 4, extended panel; 24 hours, ≥50% inhibition; read-out: MIC C. auris 8971. Here is the method:
as §1, §2, §6, §4, §5, §7

Another test has as its system C. glabrata NCPF8018. Described as above. In kind it is cell-based, Candida glabrata. The conditions noted are these: Nakaseomyces glabratus, NCPF8018; Table 4, common panel; 24 hours, ≥50% inhibition; read-out: MIC C. glabrata NCPF8018. Here is the method:
as §1, §2, §6, §4, §5

The test system of a further test is C. parapsilosis NCPF3209. In words: microbe, parasite or virus in culture. In kind it is cell-based, Candida parapsilosis. The following applies: Lodderomyces parapsilosis, NCPF3209; Table 4, common panel; 24 hours, ≥50% inhibition; read-out: MIC C. parapsilosis NCPF3209. The protocol: as §1, §2, §6, §4, §5
A further test deals with C. krusei NCPF3876. Nature of the test: microbe, parasite or virus in culture. The format is cell-based, Candida krusei. The conditions noted are these: Pichia kudriavzevii, NCPF3876; Table 4, common panel; 24 hours, ≥50% inhibition; read-out: MIC C. krusei NCPF3876. Here is the method: as §1, §2, §6, §4, §5
The subject of a further test is Candida auris TDG2506. Nature of the test: microbe, parasite or virus in culture. In kind it is cell-based. The following applies: Candidozyma auris, TDG2506; Table 4, extended panel; 24 hours, ≥50% inhibition; read-out: MIC Candida auris TDG2506. Here is the method: as §1, §2, §6, §4, §5, §7
The next test relates to Candida auris TDG2211. Nature of the test: microbe, parasite or virus in culture. The following applies: Candidozyma auris, TDG2211; Table 4, extended panel; 24 hours, ≥50% inhibition; read-out: MIC Candida auris TDG2211. In kind it is cell-based. The protocol: as §1, §2, §6, §4, §5, §7

Consider `OC(CN1C[C@H]2CC(Nc3ccc(F)cc3)C[C@H]2C1)(Cn1cncn1)c1ccc(F)cc1F` (some centres unmarked) [Example 101], for which the MIC is 1 µg/mL (≈ 2.19 µM) in the test with C. auris TDG1912; 4 µg/mL (≈ 8.74 µM) in the test on C. tropicalis NCPF8760; 0.125 µg/mL (≈ 0.273 µM) with Candida auris TDG2512; 2 µg/mL (≈ 4.37 µM) in the test on Candida auris TDG1102; at most 0.03 µg/mL with C. albicans NCPF3281; 4 µg/mL (≈ 8.74 µM) in the test with C. auris 8984. Also, the MIC was 0.25 µg/mL (≈ 0.546 µM) with C. auris 8977; 0.25 µg/mL (≈ 0.546 µM) in the test with C. auris 8971; 0.5 µg/mL (≈ 1.09 µM) in the test on C. glabrata NCPF8018; at most 0.03 µg/mL in the test with C. parapsilosis NCPF3209; 1 µg/mL (≈ 2.19 µM) in the test with C. krusei NCPF3876; 4 µg/mL (≈ 8.74 µM) in the test with Candida auris TDG2506. Moreover, the MIC in the test on Candida auris TDG2211 lay in the range of 0.125 to 2 µg/mL (≈ 0.273 to 4.37 µM).

As for `Cc1ccc(Oc2ccc(NC3CCN(CC(O)(Cn4cncn4)c4ccc(F)cc4F)CC3)cc2)cc1` (centres unmarked) [Example 85], the MIC in the test on C. auris TDG1912 was 0.0625 µg/mL (≈ 0.12 µM); with C. tropicalis NCPF8760 it was 0.25 µg/mL (≈ 0.481 µM); with Candida auris TDG2512 it was 0.00391 to 0.0313 µg/mL (≈ 0.00753 to 0.0602 µM); with Candida auris TDG1102 it was 0.0625 to 0.25 µg/mL (≈ 0.12 to 0.481 µM); with C. albicans NCPF3281, 0.0078 µg/mL (≈ 0.015 µM); in the test on C. auris 8984, 0.0625 to 0.5 µg/mL (≈ 0.12 to 0.962 µM). In addition, the MIC is 0.015 to 0.03 µg/mL (≈ 0.0289 to 0.0577 µM) in the test with C. auris 8977; 0.00195 to 0.125 µg/mL (≈ 0.00375 to 0.241 µM) in the test on C. auris 8971; 1 µg/mL (≈ 1.92 µM) in the test on C. glabrata NCPF8018; 0.00391 to 0.0313 µg/mL (≈ 0.00753 to 0.0602 µM) in the test on C. parapsilosis NCPF3209; 0.0156 to 0.25 µg/mL (≈ 0.03 to 0.481 µM) in the test on C. krusei NCPF3876; 0.0625 to 0.125 µg/mL (≈ 0.12 to 0.241 µM) with Candida auris TDG2506. Also, the MIC in the test on Candida auris TDG2211 fell in the range of 0.015 to 0.125 µg/mL (≈ 0.0289 to 0.241 µM).

In the case of `OC(CN1C[C@H]2CC(Nc3ccc(N4CCCCC4)cc3)C[C@H]2C1)(Cn1cncn1)c1ccc(F)cc1F` (some centres unmarked) [Example 100], the MIC was 8 µg/mL (≈ 15.3 µM) in the test on C. auris TDG1912; 8 µg/mL (≈ 15.3 µM) with C. tropicalis NCPF8760; 0.25 µg/mL (≈ 0.478 µM) in the test on Candida auris TDG2512; 16 µg/mL (≈ 30.6 µM) with Candida auris TDG1102; at most 0.03 µg/mL in the test with C. albicans NCPF3281; 4 µg/mL (≈ 7.65 µM) in the test on C. auris 8984. Also, the MIC is 2 µg/mL (≈ 3.83 µM) in the test with C. auris 8977; 1 µg/mL (≈ 1.91 µM) with C. auris 8971; 2 µg/mL (≈ 3.83 µM) in the test on C. glabrata NCPF8018; at most 0.03 µg/mL in the test on C. parapsilosis NCPF3209; 2 µg/mL (≈ 3.83 µM) with C. krusei NCPF3876; 4 µg/mL (≈ 7.65 µM) with Candida auris TDG2506. For the same compound, in the test with Candida auris TDG2211, the MIC turned out to be 2 µg/mL (≈ 3.83 µM).

For `OC(CN1CCC(Nc2ccc(OCc3ccncc3)cc2)CC1)(Cn1cncn1)c1ccc(F)cc1F` (centres unmarked) [Example 81], the MIC is 0.0313 µg/mL (≈ 0.0601 µM) in the test on C. auris TDG1912; 0.5 µg/mL (≈ 0.96 µM) in the test on C. tropicalis NCPF8760; 0.00781 µg/mL (≈ 0.015 µM) with Candida auris TDG2512; 0.0625 µg/mL (≈ 0.12 µM) in the test on Candida auris TDG1102; 0.00781 µg/mL (≈ 0.015 µM) with C. albicans NCPF3281; 0.125 µg/mL (≈ 0.24 µM) with C. auris 8984. Also, the MIC in the test with C. auris 8977 is 0.0156 µg/mL (≈ 0.03 µM); in the test with C. auris 8971 it was 0.0156 µg/mL (≈ 0.03 µM); in the test on C. glabrata NCPF8018, 2 µg/mL (≈ 3.84 µM); in the test with C. parapsilosis NCPF3209 it was 0.00781 µg/mL (≈ 0.015 µM); with C. krusei NCPF3876 it was 0.125 µg/mL (≈ 0.24 µM); in the test with Candida auris TDG2506 it was 0.125 µg/mL (≈ 0.24 µM). Besides, in the test with Candida auris TDG2211, the MIC was determined as 0.0313 µg/mL (≈ 0.0601 µM).

Consider `OC(CN1C[C@H]2CC(Nc3ccc(Cc4ccccc4)cc3)C[C@H]2C1)(Cn1cncn1)c1ccc(F)cc1F` (stereo partly drawn) [Example 16, 1-((3aR,6aS)-5-((4-benzylphenyl)amino)hexahydrocyclopenta[c]pyrrol-2(1H)-yl)-2-(2,4-difluorophenyl)-3-(1H-1,2,4-triazol-1-yl)propan-2-ol], for which the MIC with C. auris TDG1912 is 1 µg/mL (≈ 1.89 µM); with C. tropicalis NCPF8760 it was 1 µg/mL (≈ 1.89 µM); in the test with Candida auris TDG2512, at most 0.125 µg/mL; with Candida auris TDG1102, 1 µg/mL (≈ 1.89 µM); with C. albicans NCPF3281 it was at most 0.125 µg/mL; in the test on C. auris 8984, 1 µg/mL (≈ 1.89 µM). Moreover, the MIC with C. auris 8977 was at most 0.125 µg/mL; in the test with C. auris 8971 it was at most 0.125 µg/mL; with C. glabrata NCPF8018 it was at most 0.125 µg/mL; in the test on C. parapsilosis NCPF3209, at most 0.125 µg/mL; in the test on C. krusei NCPF3876, at most 0.125 µg/mL; in the test on Candida auris TDG2506, 0.5 µg/mL (≈ 0.944 µM). Besides, in the test on Candida auris TDG2211, the MIC was at most 0.125 µg/mL.
